What follows are compounds tested on Bacteroides fragilis (assay: Tested for zone of inhibition against Bacteroides fragilis UC6513 (1 mg/mL, 80 microL/12.7 mm)).
Format: functional

Going from `CCCCCC(=O)OC/C(C)=C1/CN(C(=O)CCCCC)C1=O` to `CCCCCC(=O)N1C/C(=C(/C)CO)C1=O`, the Diameter of inhibition zone rises from 0 mm to 27 mm.

Compared with `CCCCOC(=O)N1C/C(=C(\C)CN=[N+]=[N-])C1=O`, `COCCOC(=O)N1C/C(=C(\C)CN=[N+]=[N-])C1=O` is lower in Diameter of inhibition zone: 37 mm for the first, 0 mm for the second.

First: CCCCCC(=O)N1C[C@H]([C@H](C)CNC(C)=O)C1=O
Second: CCCCCC(=O)N1C/C(=C(\C)CN=[N+]=[N-])C1=O
The Diameter of inhibition zone of the first is higher: 76 mm for the first, 52 mm for the second.

Going from `CCCC(=O)N1C/C(=C(\C)COC(C)=O)C1=O` to `CCCC(=O)OC/C(C)=C1/CN(C(=O)c2ccccc2)C1=O`, the Diameter of inhibition zone falls from 31 mm to 0 mm.

Each compound was assayed on Clostridium perfringens (assay: Tested for zone of inhibition against Clostridium perfringens UC6509).
Format: functional

First: CCCCCC(=O)OC/C(C)=C1/CN(C(=O)CCCCC)C1=O
Second: CCCCCC(=O)N1C/C(=C(/C)CO)C1=O
The Diameter of inhibition zone of the first is lower: 0 mm for the first, 28 mm for the second.

Going from `CCCCOC(=O)N1C/C(=C(\C)CN=[N+]=[N-])C1=O` to `COCCOC(=O)N1C/C(=C(\C)CN=[N+]=[N-])C1=O`, the Diameter of inhibition zone falls from 36 mm to 20 mm.

Compound `CCCC(=O)N1C/C(=C(\C)COC(C)=O)C1=O` has a Diameter of inhibition zone of 0 mm.

These compounds were tested on Clostridium perfringens (assay: The compound (1 mg/mL, 80 microL/12.7 mm) was tested for zone of inhibition against Clostridium perfringens UC6509; Tr = trace).
Format: functional, organism-based

With `CCCC(=O)OC/C(C)=C1/CN(C(=O)c2ccccc2)C1=O` the “Diameter of inhibition zone” value was “Trace”.

Each compound was assayed on Mycobacterium avium (assay: The compound (1 mg/mL, 80 microL/12.7 mm) was tested for zone of inhibition against Mycobacterium avium UC159; Tr = trace).
Format: functional, organism-based

For `CCCCCC(=O)N1C/C(=C(/C)CO)C1=O`, the “Diameter of inhibition zone” value was “Trace”.
For `CCCC(=O)OC/C(C)=C1/CN(C(=O)c2ccccc2)C1=O`, the “Diameter of inhibition zone” value was “Trace”.

Each compound was assayed on Staphylococcus aureus (assay: Tested for zone of inhibition against Staphylococcus aureus UC3665 (1 mg/mL, 80 microL/12.7 mm)).
Format: functional

`CCCCCC(=O)OC/C(C)=C1/CN(C(=O)CCCCC)C1=O` and `CCCCCC(=O)N1C/C(=C(/C)CO)C1=O` are the same in Diameter of inhibition zone: 0 mm for the first, 0 mm for the second.

Going from `CCCCOC(=O)N1C/C(=C(\C)CN=[N+]=[N-])C1=O` to `COCCOC(=O)N1C/C(=C(\C)CN=[N+]=[N-])C1=O`, the Diameter of inhibition zone falls from 30 mm to 26 mm.

Going from `CCCCCC(=O)N1C[C@H]([C@H](C)CNC(C)=O)C1=O` to `CCCCCC(=O)N1C/C(=C(\C)CN=[N+]=[N-])C1=O`, the Diameter of inhibition zone rises from 19 mm to 27 mm.

Compared with `CCCC(=O)N1C/C(=C(\C)COC(C)=O)C1=O`, `CCCC(=O)OC/C(C)=C1/CN(C(=O)c2ccccc2)C1=O` is lower in Diameter of inhibition zone: 18 mm for the first, 16 mm for the second.

These compounds were tested on Staphylococcus aureus (assay: Tested for zone of inhibition against Staphylococcus aureus UC6685 (1 mg/mL, 80 microL/6.5 mm)).
Format: functional

`CCCCCC(=O)OC/C(C)=C1/CN(C(=O)CCCCC)C1=O` and `CCCCCC(=O)N1C/C(=C(/C)CO)C1=O` are the same in Diameter of inhibition zone: 0 mm for the first, 0 mm for the second.

Going from `CCCCOC(=O)N1C/C(=C(\C)CN=[N+]=[N-])C1=O` to `CCCCCC(=O)N1C/C(=C(\C)CN=[N+]=[N-])C1=O`, the Diameter of inhibition zone falls from 39 mm to 27 mm.

Compared with `CCCC(=O)N1C/C(=C(\C)COC(C)=O)C1=O`, `CCCC(=O)OC/C(C)=C1/CN(C(=O)c2ccccc2)C1=O` is lower in Diameter of inhibition zone: 8 mm for the first, 0 mm for the second.

The compounds below were run on Staphylococcus aureus (assay: The compound (1 mg/mL, 80 microL/6.5 mm) was tested for zone of inhibition against Staphylococcus aureus UC6685 (20H -, H: Hazy zone)).
Format: functional

In the case of `COCCOC(=O)N1C/C(=C(\C)CN=[N+]=[N-])C1=O`, the Diameter of inhibition zone is reported as 20 mm.

The compounds below were run on Staphylococcus aureus (assay: The compound (1 mg/mL, 80 microL/6.5 mm) was tested for zone of inhibition against Staphylococcus aureus UC6685; Tr = trace).
Format: functional, organism-based

For `CCCCCC(=O)N1C[C@H]([C@H](C)CNC(C)=O)C1=O`, the “Diameter of inhibition zone” value was “Trace”.

What follows are compounds tested on Staphylococcus epidermidis (assay: Tested for zone of inhibition against Staphylococcus epidermidis UC719 (1 mg/mL, 80 microL/6.5 mm)).
Format: functional

`CCCCCC(=O)OC/C(C)=C1/CN(C(=O)CCCCC)C1=O` and `CCCCCC(=O)N1C/C(=C(/C)CO)C1=O` are the same in Diameter of inhibition zone: 0 mm for the first, 0 mm for the second.

Going from `CCCCOC(=O)N1C/C(=C(\C)CN=[N+]=[N-])C1=O` to `CCCCCC(=O)N1C/C(=C(\C)CN=[N+]=[N-])C1=O`, the Diameter of inhibition zone falls from 32 mm to 19 mm.

`CCCC(=O)OC/C(C)=C1/CN(C(=O)c2ccccc2)C1=O` was tested, and the Diameter of inhibition zone was 0 mm.

What follows are compounds tested on Staphylococcus epidermidis (assay: The compound (1 mg/mL, 80 microL/6.5 mm) was tested for zone of inhibition against Staphylococcus epidermidis UC719 (14H -, H: Hazy zone)).
Format: functional

In the case of `COCCOC(=O)N1C/C(=C(\C)CN=[N+]=[N-])C1=O`, the Diameter of inhibition zone is reported as 14 mm.

What follows are compounds tested on Staphylococcus epidermidis (assay: The compound (1 mg/mL, 80 microL/6.5 mm) was tested for zone of inhibition against Staphylococcus epidermidis UC719; Tr = trace).
Format: functional, organism-based

With `CCCCCC(=O)N1C[C@H]([C@H](C)CNC(C)=O)C1=O` the “Diameter of inhibition zone” value was “Trace”.
With `CCCC(=O)N1C/C(=C(\C)COC(C)=O)C1=O` the “Diameter of inhibition zone” value was “Trace”.
